Data from the NIST ThermoML archive (doi:10.1016/j.jct.2014.10.014).
Numbers after ± are expanded uncertainties.

Test: mn = molality of the nth substance listed, in mol/kg
Conditions: 100 kPa, Liquid, Alternating current cell with electrodes

C[C@H](CCC(=O)[O-])[C@H]1CC[C@H]2[C@@H]3[C@H](O)C[C@@H]4C[C@H](O)CC[C@]4(C)[C@H]3C[C@H](O)[C@]12C.[Na+] [sodium cholate] + O
electrical conductivity [S/m]
Conditions | 293.15 K | 298.15 K | 303.15 K | 308.15 K | 313.15 K | 318.15 K
m1 = 0.001 | 0.0066 ± 0.0039 | 0.007 ± 0.0043 | 0.005 ± 0.0036 | 0.007 ± 0.0042 | 0.0075 ± 0.0037 | 0.0115 ± 0.0038
m1 = 0.002 | 0.0129 ± 0.0039 | 0.014 ± 0.004 | 0.0115 ± 0.004 | 0.014 ± 0.004 | 0.014 ± 0.0039 | 0.0175 ± 0.0038
m1 = 0.003 | 0.019 ± 0.0039 | 0.0204 ± 0.0039 | 0.018 ± 0.0039 | 0.02 ± 0.0039 | 0.02 ± 0.0039 | 0.0235 ± 0.004
m1 = 0.004 | 0.0254 ± 0.0038 | 0.0267 ± 0.0039 | 0.0242 ± 0.0039 | 0.0263 ± 0.004 | 0.0265 ± 0.004 | 0.0305 ± 0.004
m1 = 0.005 | 0.031 ± 0.0039 | 0.0326 ± 0.0038 | 0.0308 ± 0.004 | 0.0332 ± 0.004 | 0.0332 ± 0.004 | 0.0369 ± 0.0039
m1 = 0.006 | 0.0378 ± 0.0039 | 0.0386 ± 0.0038 | 0.0373 ± 0.004 | 0.0397 ± 0.0039 | 0.0395 ± 0.004 | 0.043 ± 0.0039
m1 = 0.007 | 0.0434 ± 0.0039 | 0.0442 ± 0.0037 | 0.0439 ± 0.004 | 0.0454 ± 0.0039 | 0.0466 ± 0.0041 | 0.0497 ± 0.004
m1 = 0.008 | 0.0503 ± 0.0039 | 0.0498 ± 0.0038 | 0.0503 ± 0.004 | 0.0524 ± 0.004 | 0.0533 ± 0.004 | 0.0565 ± 0.0041
m1 = 0.009 | 0.0558 ± 0.0039 | 0.0562 ± 0.004 | 0.057 ± 0.004 | 0.0584 ± 0.004 | 0.06 ± 0.004 | 0.0633 ± 0.0041
m1 = 0.01 | 0.0628 ± 0.004 | 0.063 ± 0.0039 | 0.0635 ± 0.004 | 0.0653 ± 0.0043 | 0.0668 ± 0.0042 | 0.0705 ± 0.0042
m1 = 0.011 | 0.0689 ± 0.0039 | 0.0687 ± 0.0039 | 0.07 ± 0.0039 | 0.0735 ± 0.0042 | 0.0745 ± 0.0042 | 0.0779 ± 0.0042
m1 = 0.012 | 0.0754 ± 0.0041 | 0.0753 ± 0.0041 | 0.076 ± 0.0038 | 0.0798 ± 0.0039 | 0.0815 ± 0.0041 | 0.0855 ± 0.0043
m1 = 0.013 | 0.0827 ± 0.0039 | 0.0825 ± 0.0039 | 0.082 ± 0.0038 | 0.0861 ± 0.0038 | 0.0885 ± 0.0039 | 0.093 ± 0.004
m1 = 0.014 | 0.0881 ± 0.0036 | 0.088 ± 0.0036 | 0.0873 ± 0.0037 | 0.0911 ± 0.0037 | 0.0939 ± 0.0037 | 0.0985 ± 0.0038
m1 = 0.015 | 0.0929 ± 0.0037 | 0.0928 ± 0.0035 | 0.093 ± 0.0037 | 0.0967 ± 0.0037 | 0.0995 ± 0.0036 | 0.104 ± 0.0038
m1 = 0.016 | 0.0985 ± 0.0036 | 0.097 ± 0.0034 | 0.0981 ± 0.0036 | 0.102 ± 0.0037 | 0.104 ± 0.0036 | 0.111 ± 0.0039
m1 = 0.017 | 0.103 ± 0.0034 | 0.101 ± 0.0034 | 0.103 ± 0.0036 | 0.108 ± 0.0037 | 0.11 ± 0.0037 | 0.117 ± 0.0038
m1 = 0.018 | 0.107 ± 0.0034 | 0.105 ± 0.0034 | 0.108 ± 0.0036 | 0.113 ± 0.0036 | 0.115 ± 0.0037 | 0.122 ± 0.0036
m1 = 0.019 | 0.111 ± 0.0034 | 0.109 ± 0.0033 | 0.113 ± 0.0036 | 0.118 ± 0.0036 | 0.12 ± 0.0037 | 0.127 ± 0.0036
m1 = 0.02 | 0.115 ± 0.0034 | 0.112 ± 0.0038 | 0.118 ± 0.0035 | 0.123 ± 0.0035 | 0.126 ± 0.004 | 0.132 ± 0.0036

C[C@H](CCC(=O)[O-])[C@H]1CC[C@H]2[C@@H]3CC[C@@H]4C[C@H](O)CC[C@]4(C)[C@H]3C[C@H](O)[C@]12C.[Na+] [sodium deoxycholate] + O
electrical conductivity [S/m]
Conditions | 293.15 K | 298.15 K | 303.15 K | 308.15 K | 313.15 K | 318.15 K
m1 = 0.0005 | 0.003 ± 0.0041 | 0.0035 ± 0.0038 | 0.004 ± 0.004 | 0.0035 ± 0.0038 | 0.0035 ± 0.0038 | 0.004 ± 0.0038
m1 = 0.001 | 0.0065 ± 0.004 | 0.0065 ± 0.0038 | 0.007 ± 0.0038 | 0.0065 ± 0.0038 | 0.0065 ± 0.004 | 0.007 ± 0.0038
m1 = 0.0015 | 0.0095 ± 0.0038 | 0.0095 ± 0.0038 | 0.01 ± 0.0038 | 0.0095 ± 0.0038 | 0.01 ± 0.0039 | 0.01 ± 0.0038
m1 = 0.002 | 0.0125 ± 0.0038 | 0.0125 ± 0.0038 | 0.013 ± 0.0038 | 0.0124 ± 0.0038 | 0.0128 ± 0.0038 | 0.013 ± 0.0038
m1 = 0.0025 | 0.0155 ± 0.0038 | 0.0155 ± 0.0038 | 0.016 ± 0.0039 | 0.0153 ± 0.0039 | 0.016 ± 0.0039 | 0.016 ± 0.0038
m1 = 0.003 | 0.0185 ± 0.0037 | 0.0182 ± 0.0038 | 0.0191 ± 0.0038 | 0.0185 ± 0.004 | 0.019 ± 0.0038 | 0.019 ± 0.0038
m1 = 0.0035 | 0.021 ± 0.0038 | 0.0213 ± 0.0039 | 0.0218 ± 0.0038 | 0.022 ± 0.004 | 0.022 ± 0.0037 | 0.022 ± 0.0038
m1 = 0.004 | 0.0242 ± 0.0038 | 0.0243 ± 0.0039 | 0.0248 ± 0.0037 | 0.025 ± 0.0038 | 0.0245 ± 0.0038 | 0.025 ± 0.0038
m1 = 0.0045 | 0.027 ± 0.0038 | 0.0275 ± 0.0039 | 0.0274 ± 0.0038 | 0.028 ± 0.0038 | 0.028 ± 0.0038 | 0.028 ± 0.0038
m1 = 0.005 | 0.03 ± 0.0038 | 0.0305 ± 0.0038 | 0.0305 ± 0.0039 | 0.031 ± 0.0037 | 0.0305 ± 0.0037 | 0.031 ± 0.0038
m1 = 0.0055 | 0.033 ± 0.0037 | 0.0335 ± 0.0037 | 0.0335 ± 0.0037 | 0.0335 ± 0.0037 | 0.0335 ± 0.0038 | 0.034 ± 0.0038
m1 = 0.006 | 0.0355 ± 0.0036 | 0.036 ± 0.0036 | 0.0358 ± 0.0035 | 0.0365 ± 0.0036 | 0.0365 ± 0.0036 | 0.037 ± 0.0038
m1 = 0.0065 | 0.038 ± 0.0035 | 0.0385 ± 0.0035 | 0.038 ± 0.0035 | 0.0385 ± 0.0035 | 0.0385 ± 0.0034 | 0.04 ± 0.0037
m1 = 0.007 | 0.0399 ± 0.0034 | 0.0405 ± 0.0034 | 0.0405 ± 0.0036 | 0.041 ± 0.0036 | 0.0405 ± 0.0034 | 0.0425 ± 0.0036
m1 = 0.0075 | 0.042 ± 0.0034 | 0.0425 ± 0.0034 | 0.043 ± 0.0036 | 0.0435 ± 0.0035 | 0.0425 ± 0.0035 | 0.045 ± 0.0036
m1 = 0.008 | 0.044 ± 0.0034 | 0.0445 ± 0.0034 | 0.0455 ± 0.0036 | 0.0455 ± 0.0035 | 0.045 ± 0.0036 | 0.0475 ± 0.0036
m1 = 0.0085 | 0.046 ± 0.0034 | 0.0465 ± 0.0034 | 0.048 ± 0.0035 | 0.048 ± 0.0035 | 0.0475 ± 0.0036 | 0.05 ± 0.0036
m1 = 0.009 | 0.048 ± 0.0034 | 0.0485 ± 0.0035 | 0.0499 ± 0.0034 | 0.05 ± 0.0035 | 0.0499 ± 0.0035 | 0.0525 ± 0.0036
m1 = 0.0095 | 0.05 ± 0.0034 | 0.051 ± 0.0035 | 0.052 ± 0.0034 | 0.0525 ± 0.0036 | 0.0519 ± 0.0034 | 0.055 ± 0.0036
m1 = 0.01 | 0.0518 ± 0.0033 | 0.053 ± 0.0034 | 0.054 ± 0.0034 | 0.055 ± 0.0033 | 0.0539 ± 0.0041 | 0.0575 ± 0.0036
